Measurements taken from patent publication US5008252A, “Process for inhibiting herpes simplex virus-specified thymidine kinase” (The University of North Carolina at Chapel Hill, priority 1987, dated 1991).

Assays:
HSV-1 (KOS) dThd kinase = HSV-1 (KOS) dThd kinase (Human alphaherpesvirus 1 strain KOS, UniProt P17402); experiment: dThd kinase assay in vitro; assay type: biochemical, HSV-1 (strain KOS)
From the text: Enzyme purification, enzyme assays, IC50 and Ki determinations. The cellular cytosolic dThd kinase used to determine the Ki values was isolated from KB6B cells. The HSV-1 and HSV-2dThd kinases were extracted from dThd kinase-deficient HeLa BU cells infected with HSV-1 (strain KOS) and HSV-2(strain 333), respectively. All of the dThd kinases were purified using affinity column chromatography procedures described by Lee, L. S. and Cheng, Y.-C. (J. Biol. Chem. 251:2600-2604 (1976)). The dThd kinase assay used was the same as that described by Cheng, Y.-C. & Ostrander, M. (J. Biol. Chem. 251:2605-2610 (1976)). Incubations were conducted at 37° C. for 60 min and the Ki and 50% […] concentration (IC50) values were determined as described by Cheng, Y.-C. and Prusoff, W. H. (Biochem. Pharmacol. 22:3099-3108 (1976)).

[1] = target: HSV-1 (KOS) dThd kinase in infected HeLa BU cells (Human alphaherpesvirus 1 strain KOS, UniProt P17402); experiment: Intracellular dThd kinase activity ([14C]dThd phosphorylation); assay type: cell-based, HSV-1 (strain KOS)
Chain of HSV-1 (KOS) dThd kinase in infected HeLa BU cells (P17402 whole entry, looked up): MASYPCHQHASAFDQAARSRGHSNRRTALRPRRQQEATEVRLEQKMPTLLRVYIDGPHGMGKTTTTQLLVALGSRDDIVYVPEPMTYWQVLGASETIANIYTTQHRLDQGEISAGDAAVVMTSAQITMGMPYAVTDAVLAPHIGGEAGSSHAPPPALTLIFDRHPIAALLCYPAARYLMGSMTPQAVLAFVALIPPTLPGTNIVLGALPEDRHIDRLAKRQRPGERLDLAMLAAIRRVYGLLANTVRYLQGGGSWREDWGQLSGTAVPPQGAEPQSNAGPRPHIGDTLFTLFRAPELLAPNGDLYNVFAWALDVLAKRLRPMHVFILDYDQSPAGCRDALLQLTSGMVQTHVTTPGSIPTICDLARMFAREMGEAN
Description: Intracellular dThd kinase activity. HeLa S3 or HeLa BU cells (1.5×10^6 /ml) were mock infected or infected with HSV-1 or HSV-2at 3 PFU/cell and incubated at 37° C. for a 1 h adsorption period. The medium was then removed, and the cells were washed with growth medium and resuspended at a cell density of 5×10^5 cells/ml in RPMI 1640 medium supplemented with kanamycin (100 μg/ml) and 5% dialyzed fetal bovine serum. At 9 h post-HSV infection, [14C]dThd (0.16 μCi/ml; 1 μM dThd) and different amounts of 5'-Et-dThd were added to the medium depending on experimental conditions. At the end of the labeling period (1 h), the cells were pelleted by centrifugation, washed with phosphate-buffered-saline (PBS) and resuspended in a small volume of PBS. Aliquots were then pipetted directly onto DE81 discs which were immediately washed in 100% EtOH. The DE81 discs were washed two additional times in 100% EtOH, and then radioactivity associated with the discs was measured by scintillation counting in 5 ml of aqueous counting fluid. In this manner, total intracellular dThd kinase activity was determined from the sum of radioactive acid soluble dThd nucleotides plus the acid insoluble dTMP associated with DNA, both precipitated directly on the DE81 discs.

virus DNA synthesis = experiment: Virus DNA synthesis, isopycnic centrifugation of 32PO4-labeled DNA; assay type: cell-based; settings: 5'-Et-dThd by itself; 32PO4-labeled virus DNA separated from host DNA
From the text: By itself, 5'-Et-dThd had no effect on virus yield (Table II) and on virus DNA synthesis as determined from isopycnic centrifugation studies where ^32 PO4 -labeled virus DNA was separated from host DNA. Nucleoside analogs have been developed based on the "selective alternate substrate" strategy, and depend on viral dThd kinase for their antiviral activity. The effect of 5'-Et-dThd on the antiviral efficacy of five such analogs, ACV, 9-(1, 3-dihydroxy-2-propoxymethyl) guanine (DHPG), fluoroido-arabinosyl-cytosine (FIAC), BVDU and 5'-amino-dThd (5'-NH2 -dThd) has been examined. The effect of 5'-Et-dThd on the activity of the five agents was determined by the virus yield assay using HSV-1 (strain KOS)-infected HeLa BU cells. At 100 μM, 5'-Et-dThd reversed the antiviral activity of ACV (15 μM), DHPG (2 μM), FIAC (1 μM), BVDU (1 μM) and 5'-NH2 -dThd (500 μM)35-, 100-, 98-, 15- and 250-fold, respectively (Table II). […] The results further indicate that the use of 5'-Et-dThd in the prophylaxis/prevention of virus reactivation would require a sequential order when used with virus dThd kinase-dependent antiviral agents.

mammalian cell growth = experiment: Cell growth inhibition; assay type: cell-based
Description: Cell and virus growth inhibition. Cell growth inhibition and the virus yield assay were performed in accordance with the protocol described by Cheng, Y.-C., Grill, S.P., Ruth, J. and Bergstrom, D. E. (Antimicrob. Agents Chemother. 18:957-961 (1980)) with the exceptions that all studies were done using 5% dialyzed fetal bovine serum; the multiplicity of infection was 3 PFU/cell and Vero cells were used instead of CV-1 cells for titration in the virus yield assays.

Chain of HSV-1 (KOS) dThd kinase (P17402 whole entry, looked up): as above

## 5'-ethynylthymidine [5'-Et-dThd]
HSV-1 (KOS) dThd kinase; 10 μM 5'-Et-dThd, purified enzyme, 100 μM [14C]dThd
  inhibition of dThd kinase activity: 50%
HSV-1 (KOS) dThd kinase; HSV-1 KOS, affinity column-purified dThd kinase, ± standard deviation
  Ki: 0.09 µM
HSV-1 (KOS) dThd kinase; HSV-1 KOS, enzyme extracts of infected HeLa BU cells, 100 μM dThd
  IC50: 6 µM
HSV-1 (KOS) dThd kinase; with respect to dThd
  type of inhibition (kinetic studies): competitive inhibitor
[1]; 25 μM, HSV-1-infected HeLa BU, 9 h post infection, 1 h labeling
  dThd phosphorylating activity, % of untreated control: 12.5%
[1]; 100 μM, HSV-1-infected HeLa BU cells, 9 h post infection
  inhibition of dThd kinase-mediated [14C]dThd phosphorylation: 97%
[1]; HSV-1 KOS, intracellular [14C]dThd phosphorylation, HeLa BU cells
  IC50: 3 µM
Virus DNA synthesis
  effect on virus DNA synthesis: no effect
Mammalian cell growth
  inhibition of mammalian cell growth: nor does the analog inhibit mammalian cell growth
